The source of these data is patent US20260091008A1, “DOUBLE TARGETED CONSTRUCTS TO AFFECT TUMOR KILL” (Cornell University, priority 2016, published 2026).

Values joined by “and” are separate entries in the source; they are usually repeats but may differ in a detail not shown here. Equal values may be shown once.

In one data set the target is T1, PSMA on LNCaP cells (Homo sapiens, UniProt Q04609).
T1 construct: host or cells: LNCaP
Kind of data set: Multi-concentration competitive binding assay against 99mTc-MIP-1427 on LNCaP cells. Particulars: non-radioactive ligands vs 1 nM 99mTc-MIP-1427, LNCaP cells, 1 h. How it is done:
Cell Culture. […] Cell culture supplies were from Invitrogen unless otherwise noted.
In vitro determination of IC50. […] Eur J Nucl Med Mol Imaging. 2017; 44, 647-661, incorporated herein by reference. […] The cells were incubated for 1 h with 1 nM ^99mTc-MIP-1427 in serum-free RPMI-1640 medium in the presence of 0.1-10,000 nM test compounds. […] Cells were harvested from the plates and transferred to tubes for radioactive counting using a Packard Cobra II Gamma Counter. IC50 values were determined by non-linear regression using GraphPad Prism software.

For a further data set, the target named is HSA (Homo sapiens, UniProt P02768). Kind of data set: HSA affinity determination on immobilized-HSA microcolumns. The class given is binding. To be noted: HSA microcolumn, phosphate buffer pH 7.4, room temperature. The source says:
HSA affinity determination. HSA was immobilized to HPLC-grade silica by the Schiff base method as described previously and were packed into 10 mm×2.1 mm i.d. microcolumns. See Chen J, Hage D S. Quantitative studies of allosteric effects by biointeraction chromatography: analysis of protein binding for low-solubility drugs. Anal Chem. 2006:78:2672-2683 and Matsuda R, Anguizola J, Hoy K S, Hage D S. Analysis of drug-protein interactions by high-performance affinity chromatography: interactions of sulfonyl urea drugs with normal and glycated human serum albumin. Methods Mol Biol. 2015; 1286:255-277, each of which is incorporated herein by reference. The protein content of these columns was approximately 60 mg HSA per gram of silica. See Zheng X, Podariu M, Bi C, Hage D S. Development of enhanced capacity affinity microcolumn by using a hybrid of protein cross-linking/modification and immobilization. J. Chromatogr A. 2015; 1400:82-90, incorporated herein by reference. Control microcolumns were prepared in the same manner but with no HSA being added during the immobilization step. The retention factor for each compound was measured on both an HSA microcolumn and a control column by injecting 5 μL samples that contained approximately 50 μM of the compound in 0.067M potassium phosphate buffer (pH 7.4). All samples were injected in triplicate at room temperature and at 1.0 mL/min, with the phosphate buffer used as the mobile phase. Similar injections were made with samples containing sodium nitrate, which was used as a void volume marker. Elution of the injected compounds was monitored by absorbance detection. The dissociation constant (Kd) for each compound with HSA estimated by using the measured retention factors, after correcting for any observed retention on the control column, along with the estimated content of active HSA in the column, as based on injections made with warfarin and L-tryptophan (i.e., probes for Sudlow sites I and II of HSA). See Chen J, Hage D S. Anal Chem. 2006:78:2672-2683 (cited above) and Joseph K S, Hage D S. The effects of glycation on the binding of human serum albumin to warfarin and L-tryptophan. J Pharm Biomed Anal. 2010; 53:811-818, incorporated herein by reference.

The conditions of data set [1]: salivary glands, radioligand therapy; cited from earlier work.
The subject of another data set is LNCaP cell xenografts. Kind of data set: Tissue distribution of 131I-labeled compounds in mice bearing LNCaP xenografts. Particulars: male, NCr-nu/nu, mouse, in vivo. As for the experimental part:
Inoculation of mice with xenografts. All animal studies were approved by the Institutional Animal Care and Use Committee of Weill Cornell Medicine and were undertaken in accordance with the guidelines set forth by the USPHS Policy on Humane Care and Use of Laboratory Animals. Animals were housed under standard conditions in approved facilities with 12 h light/dark cycles. Food and water was provided ad libitum throughout the course of the studies. Male inbred athymic nu/nu mice were purchased from The Jackson Laboratory. For inoculation in mice, LNCaP cells were suspended at 4×10^7 cells/mL in a 1:1 mixture of PBS:Matrigel (BD Biosciences). Each mouse was injected in the left flank with 0.25 mL of the cell suspension. The mice were imaged when the tumors reached approximately 200-400 mm^3, while biodistributions were conducted when tumors were in the range 100-400 mm^3.
Tissue Distribution Studies. A quantitative analysis of the tissue distribution of ^131I-labeled compounds was performed in separate groups of male NCr-nu/nu mice bearing LNCaP cell xenografts administered via the tail vein as a bolus injection (approximately 370 kBq (10 μCi)/mouse) in a volume of 0.05-0.1 mL of saline solution containing 2.5% v/v DMSO. The animals (n=3-5/time point) were euthanized by asphyxiation with CO2 at the indicated time points after injection. Tissues, including blood, heart, lungs, liver, spleen, pancreas, kidneys, stomach, large and small intestines (with contents), skeletal muscle, bone, and tumor, were dissected, excised, weighed wet (Sartorius analytical balance), and counted in a Wizard automated […] (Perkin Elmer). A 1% ID/g standard was counted with the tissue samples. Tissue time-radioactivity levels expressed as percent injected dose per gram of tissue (% ID/g) were determined. Blood pharmacokinetics were modeled as a dual compartment system using bi-exponential least-squares regression fit to the data. Regression method was implemented in MATLAB R2015b (MathWorks, Natick, MA).

The conditions of data set [2]: in vivo; cited from earlier work.

T1 sequence (Q04609 whole entry): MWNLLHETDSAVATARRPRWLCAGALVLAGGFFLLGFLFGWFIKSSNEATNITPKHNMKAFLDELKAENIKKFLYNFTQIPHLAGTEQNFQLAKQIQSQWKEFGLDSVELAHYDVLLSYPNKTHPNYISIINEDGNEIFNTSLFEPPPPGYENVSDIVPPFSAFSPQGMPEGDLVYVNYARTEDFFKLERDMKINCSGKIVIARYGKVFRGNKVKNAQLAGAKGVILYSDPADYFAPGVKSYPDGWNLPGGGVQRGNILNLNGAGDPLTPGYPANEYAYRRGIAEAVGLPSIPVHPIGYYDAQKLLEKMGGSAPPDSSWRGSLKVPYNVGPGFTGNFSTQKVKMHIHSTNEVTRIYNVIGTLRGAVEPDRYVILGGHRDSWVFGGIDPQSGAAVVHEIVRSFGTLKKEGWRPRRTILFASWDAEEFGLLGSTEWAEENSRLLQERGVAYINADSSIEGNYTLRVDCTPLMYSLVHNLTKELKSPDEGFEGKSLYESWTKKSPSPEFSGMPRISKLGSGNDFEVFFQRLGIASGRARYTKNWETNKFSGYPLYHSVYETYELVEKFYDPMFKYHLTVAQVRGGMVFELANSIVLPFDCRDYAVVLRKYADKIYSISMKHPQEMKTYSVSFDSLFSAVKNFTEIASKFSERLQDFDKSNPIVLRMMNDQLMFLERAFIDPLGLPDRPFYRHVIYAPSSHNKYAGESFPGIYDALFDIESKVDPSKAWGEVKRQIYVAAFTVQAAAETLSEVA
Chain of HSA (P02768 25-609): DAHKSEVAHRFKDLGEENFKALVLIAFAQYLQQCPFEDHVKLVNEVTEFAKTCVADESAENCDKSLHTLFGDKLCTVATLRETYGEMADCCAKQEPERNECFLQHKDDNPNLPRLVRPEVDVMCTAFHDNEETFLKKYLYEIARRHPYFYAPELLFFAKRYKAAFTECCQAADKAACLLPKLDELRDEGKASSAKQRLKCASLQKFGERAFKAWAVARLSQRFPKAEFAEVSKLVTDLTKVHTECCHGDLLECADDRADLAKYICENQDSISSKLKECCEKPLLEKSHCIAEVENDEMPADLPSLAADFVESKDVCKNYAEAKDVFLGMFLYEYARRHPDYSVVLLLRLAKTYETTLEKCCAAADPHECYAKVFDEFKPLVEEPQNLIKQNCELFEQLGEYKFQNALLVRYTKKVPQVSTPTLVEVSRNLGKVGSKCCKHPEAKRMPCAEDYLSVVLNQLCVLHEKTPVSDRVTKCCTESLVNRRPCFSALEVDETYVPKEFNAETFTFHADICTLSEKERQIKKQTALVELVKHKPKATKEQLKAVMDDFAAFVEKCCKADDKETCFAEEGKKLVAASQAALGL

Turning to `O=C(O)CC[C@H](NC(=O)N[C@@H](CCCCNC(=O)Cc1ccc(I)cc1)C(=O)O)C(=O)O` [RPS-027, (((S)-1-Carboxy-5-(2-(4-iodophenyl)acetamido)pentyl)carbamoyl)-L-glutamic acid], the IC50 at PSMA on LNCaP cells was determined as 0.015 µM. Also, the Kd at HSA is 11 µM and 11.2 µM.

Consider “(((S)-1-Carboxy-4-(3-(4-iodophenyl)propanamido)pentyl)carbamoyl)-L-glutamic acid [RPS-022]”, for which the IC50 at PSMA on LNCaP cells was determined as 0.01 µM. Further, on HSA, the Kd is 22.9 µM.

Turning to `O=C(O)CC[C@H](NC(=O)N[C@@H](CCCCNC(=O)CCc1ccc(I)cc1)C(=O)O)C(=O)O` [RPS-026, (((S)-1-Carboxy-5-(3-(4-iodophenyl)propanamido)pentyl)carbamoyl)-L-glutamic acid], at PSMA on LNCaP cells, the IC50 amounted to 0.04 µM. Besides, on HSA, binding was put at a Kd of 26.6 µM.

Compound `O=C(O)CC[C@H](NC(=O)N[C@@H](CCCCNC(=O)Nc1ccc(I)cc1)C(=O)O)C(=O)O` [RPS-001, reference compound] returned a dissociation constant Kd at HSA of 19.2 µM. This lies in the double-digit micromolar range.

`O=C(O)CCC(NC(=O)N[C@@H](CCCCNC(=O)Nc1ccc([131I])cc1)C(=O)O)C(=O)O` (some centres unmarked) [^131I-RPS-001]: the “Toxicity reported in patients” value in data set [1] was “dose-limiting toxicity to the salivary glands”. In the data set with LNCaP cell xenografts, the “Blood t1/2 for the distribution phase” value is on record as 2.17 h, the “Blood t1/2 for the elimination phase” value amounted to 20.38 h, the Initial kidney uptake is given as over 100 % ID/g and the “Time post injection at which T/K ratio reaches 3” value was about 96 h. In the data set with LNCaP cell xenografts (24 h), this compound displayed a Kidney uptake of 65.24±22.61 % ID/g, a Large intestine uptake of 2.35±1.26 % ID/g, a Spleen uptake of 2.41±1.40 % ID/g and a Tumor uptake of 19.81±6.16 % ID/g. Moreover, in the data set on LNCaP cell xenografts (96 h), the Kidney uptake stood at 2.12±2.47 % ID/g and the Tumor uptake came out at 10.21±4.30 % ID/g.

Regarding `O=C(O)CCC(NC(=O)NC(CCCCNC(=O)CCCc1ccc([131I])cc1)C(=O)O)C(=O)O` (centres unmarked) [^131I-RPS-005], the affinity at HSA, expressed as Kd, was 0.89 µM. In the data set on LNCaP cell xenografts (24 h), this compound showed a Blood activity of 21.35±3.99 % ID/g, a Heart uptake of 4.40±0.74 % ID/g, a Kidney uptake of 39.09±2.96 % ID/g and a Liver uptake of 3.41±0.56 % ID/g. Also, in the data set on LNCaP cell xenografts (24 h), the Lungs uptake is 8.87±0.74 % ID/g and the Tumor uptake was 9.37±1.56 % ID/g. Further, in the data set on LNCaP cell xenografts (96 h), the Blood activity is recorded as 15.57±3.98 % ID/g and the Tumor uptake amounted to 10.82±2.64 % ID/g.

Regarding `O=C(O)CC[C@H](NC(=O)NC(CCCCNC(=O)c1ccc([211At])cc1)C(=O)O)C(=O)O` (stereo partly drawn) [^211At-6, (2S)-2-(3-(1-carboxy-5-(4-^211At-astatobenzamido)pentyl)ureido)-pentanedioic acid], the Nephrotoxicity result in data set [2] is reported as “dose-limiting, irreversible nephrotoxicity”.

In the case of “(((S)-1-Carboxy-4-(4-(4-iodophenyl)butanamido)pentyl)carbamoyl)-L-glutamic acid [RPS-020]”, the IC50 at PSMA on LNCaP cells worked out at 0.008 µM. In addition, on HSA, the equilibrium dissociation constant (Kd) came out at 2.1 µM.

For the compound `O=C([O-])CC[C@H](NC(=O)N[C@@H](CCCCNC(=O)[C@H](Cc1ccc2ccccc2c1)NC(=O)[C@H]1CC[C@H](CNC(=O)CN2CCN(CC(=O)[O-])CCN(CC(=O)[O-])CCN(CC(=O)[O-])CC2)CC1)C(=O)[O-])C(=O)[O-].[225Ac].[H+].[H+].[H+]` [^225Ac-PSMA-617], the “Toxicity reported in patients” value in data set [1] is “severe and sustained xerostomia”.

For the compound `O=C(O)CC[C@H](NC(=O)N[C@@H](CCCCNC(=O)CCCc1ccc(I)cc1)C(=O)O)C(=O)O` [RPS-005, (((S)-1-Carboxy-5-(4-(4-iodophenyl)butanamido)pentyl)carbamoyl)-L-glutamic acid], on PSMA on LNCaP cells, the IC50 was found to be 0.004 µM. For the same compound, the Kd on HSA is 0.98 µM.

For “(((S)-1-Carboxy-4-(2-(4-iodophenyl)acetamido)pentyl)carbamoyl)-L-glutamic acid [RPS-023]”, the IC50 on PSMA on LNCaP cells was found to be 0.01 µM. Also, at HSA, the Kd worked out at 53.2 µM.

Turning to `O=C(O)CC[C@H](NC(=O)N[C@@H](CCC(=O)N[C@@H](CCCCNC(=O)CCCc1ccc(I)cc1)C(=O)O)C(=O)O)C(=O)O` [RPS-025, (3S,7S,12S)-21-(4-iodophenyl)-5,10,18-trioxo-4,6,11,17-tetraazahenicosane-1,3,7,12-tetracarboxylic acid], the IC50 at PSMA on LNCaP cells stood at 0.015 µM. Besides, on HSA, the Kd is under 1 µM and the “Kd for HSA” value is listed as “could not be eluted from the column”.
